Drawing on ChEMBL document CHEMBL1136471, “Fluorescence resonance energy transfer in a novel cyclodextrin-peptide conjugate for detecting steroid molecules” (Bioorg Med Chem Lett, 2003), this text covers Change in sensitivity and Activity for 6 molecules.

Experiment [1] can be described thus: Sensitivity value towards cyclodextrin conjugated peptide (with pyrene) at 25 degrees Centigrade. Set-up: concentration or dose not given beside the values.
Experiment [2] can be described thus: Binding constant towards cyclodextrin conjugated peptide (with pyrene) at 25 degrees Centigrade.

Molecules are shown by their SMILES.

In experiment [1], `C[C@H](CCC(=O)O)[C@H]1CC[C@H]2[C@@H]3CC[C@@H]4C[C@H](O)CC[C@]4(C)[C@H]3CC[C@]12C` yielded a Change in sensitivity of 0.45. Moreover, in experiment [2], the Activity was 439000 Kb M-1.

As for `C[C@H](CCC(=O)O)[C@H]1CC[C@H]2[C@@H]3[C@H](O)C[C@@H]4C[C@H](O)CC[C@]4(C)[C@H]3CC[C@]12C`, in experiment [1], the Change in sensitivity was found to be 0.16. Also, the Activity in experiment [2] is 33300 Kb M-1.

Regarding `C[C@H](CCC(=O)O)[C@H]1CC[C@H]2[C@@H]3[C@@H](O)C[C@@H]4C[C@H](O)CC[C@]4(C)[C@H]3CC[C@]12C`, the Change in sensitivity in experiment [1] is 0.4. Moreover, in experiment [2], the Activity was 173000 Kb M-1.

The molecule `C[C@H](CCC(=O)O)[C@H]1CC[C@H]2[C@@H]3CC[C@@H]4C[C@H](O)CCC4(C)[C@H]3C[C@H](O)[C@]12C` (single isomer, unassigned) returned a Change in sensitivity in experiment [1] of 0.01. Also, the Activity in experiment [2] was 1100 Kb M-1.

In experiment [1], `C[C@H](CCC(=O)O)[C@H]1CC[C@H]2[C@@H]3[C@H](O)C[C@@H]4C[C@H](O)CC[C@]4(C)[C@H]3C[C@H](O)[C@]12C` had a Change in sensitivity of 0.008. In experiment [2], the Activity was 900 Kb M-1.

In experiment [1], `C[C@H](CCC(=O)O)[C@H]1CC[C@H]2[C@@H]3C[C@H](O)[C@@H]4C[C@H](O)CC[C@]4(C)[C@H]3CC[C@]12C` returned a Change in sensitivity of 0.4. Further, the Activity in experiment [2] was 210000 Kb M-1.
